# According to patent US10220051B2, “Combination of DNA repair inhibition with bendamustine or gemcitabine in the treatment of cancer” (Institute for Cancer Research, priority 2012, dated 2019):
# “Also recorded” adds a separate entry of the source.
# Key:
# [1] = test system: TDG knock-out MEFs transduced with wild type human TDG cDNA; assay: Cell cycle FACS after gemcitabine, knock-out MEFs with wild type hTDG; assay type: cell-based, mouse; details: knockout MEFs reconstituted with wild type TDG
# Method: (§1) The biologic function of TDG includes a non-enzymatic role as transcriptional co-activator, mediated by protein-protein interactions, and an enzymatic role related to its DNA N-glycosylase activity. To determine whether sensitization to gemcitabine was due to inactivation of TDG enzymatic function, TDG knock-out MEFs transduced with wild type or glycosylase-dead human TDG cDNA were evaluated.
# [2] = test system: TDG knock-out MEFs transduced with glycosylase-dead human TDG cDNA; assay: Cell cycle FACS after gemcitabine, knock-out MEFs with glycosylase-dead hTDG; assay type: cell-based, mouse; details: versus knock-out cells transduced with wild type human TDG cDNA
# Method: as §1
# [3] = test system: BxPC3 pancreatic cancer cells; assay: Clonogenic assay, BxPC3 with or without TDG knockdown; assay type: cell-based; details: TDG knockdown (C8) versus pLKO-infected BxPC3
# Method: Clonogenic assays were conducted on pancreatic cancer (PaC) cell line BxPC3 infected with empty pLKO vector or with the C8 lentivirus that downregulates TDG. Even in the absence of gemcitabine, colony formation by the TDG knockdown cells was reduced nearly 60% (FIG. 13). In FIG. 10, the maximum number of colonies formed by pLKO-infected BxPC3 cells was set as 100%.
# [4] = test system: TDG knock-out mouse embryo fibroblast lines (MEFs); assay: Cell cycle FACS after gemcitabine, TDG knock-out MEFs; assay type: cell-based; details: 50 nM gemcitabine, 48 hours
# Method: (§2) DNA content analysis via flow cytometry. Following indicated drug treatments, cells were fixed with 70% ethanol. For analysis, cells were stained with propidium iodide, RNase A and sodium citrate. Cells were incubated at 37° C. for 30 minutes before being analyzed using a Becton Dickinson single laser three-fluorescence FACScan flow analyzer and Cell Quest software (Becton Dickinson). DNA content was acquired from 10,000 events and FlowJo software was used to process the data.
# (§3) Isogenic, littermate-derived, thymine DNA glycosylase (TDG) wild type and knock-out mouse embryo fibroblast lines (MEFs) were treated with a sub-lethal dose of 50 nM gemcitabine for 48 hours. At the end of the treatment, cells were collected, stained with propidium iodide and analyzed by flow cytometry.
# [5] = test system: TDG wild type mouse embryo fibroblast lines (MEFs); assay: Cell cycle FACS after gemcitabine, wild type MEFs; assay type: cell-based; details: 50 nM gemcitabine, 48 hours
# Method: as §2, §3
# SK28 melanoma cells = assay: Killing by juglone combinations, SK28; assay type: cell-based
# [6] = test system: MCF7 breast cancer cell lines; assay: xCelligence proliferation assay, MCF7; assay type: cell-based; details: juglone + BDM
# BxPC3 cells [7] = assay: xCelligence proliferation assay, BxPC3; assay type: cell-based; details: increasing juglone + 45 μM BDM, 24 hours
# Method: To independently verify the MTS and clonogenic assays described in the preceding Examples, an assay was conducted using a xCelligence real-time cell analyzer (ACEA Biosciences, Inc.), using a label-free, non-invasive method to monitor adherent cell behavior, including proliferation, spreading and compound-mediated cytotoxicity. The system is based on detecting impedance differences within an electrical circuit created in microelectrodes at the base of culture wells; these differences are converted into a cell index (CI), a value that is influenced by a variety of factors, such as cell number, cell size and cell adhesion. The effect of the TDG inhibitor juglone, in combination with bendamustine (BDM) and gemcitabine (GCB), was assessed on the growth of various cancer cells. BxPC3 cells were treated with 45 μM BDM, in combination with increasing concentrations of juglone, and proliferation was followed over 24 hours.
# SK28 cells [8] = assay: SK28 clonogenic assay; assay type: cell-based; details: SK28, concentration-dependent, quadruplicate
# Method: (§4) Tests were conducted in quadruplicate.
# BxPC3 cells [9] = assay: MTS assay, TDG inhibitor combinations, BxPC3; assay type: cell-based; details: 10 μM juglone + increasing BDM, 72 and 96 hours
# Method: (§5) Two TDG inhibitors, juglone and closantel, were tested for their ability to kill two PaC cell lines, BxPC3 and Panc1 cells, in MTS assays. Cells were treated for 72 and 96 hours with 10 μM juglone and 20 μM closantel, in combination with increasing concentrations of BDM.
# SK28 cells [10] = assay: SK28 cell viability (MTS assay); assay type: cell-based; details: SK28, concentration-dependent, quadruplicate
# Method: as §4
# [11] = test system: HCT116 colon cancer cells; assay: Killing by juglone combinations, HCT116; assay type: cell-based
# Method: [The source words this procedure for another cell line and reports this cell line under the same test.] as §5
# MCF7 breast cancer cells = assay: Killing by juglone combinations, MCF7; assay type: cell-based
Structure (SMILES),response to gemcitabine (flow cytometry) [1],sensitivity to gemcitabine (flow cytometry) [2],colony formation with increasing gemcitabine [3],cells in S phase [4],cells in S phase [5],killing in combination with bendamustine (SK28 melanoma cells; juglone + bendamustine),killing in combination with gemcitabine (SK28 melanoma cells; juglone + gemcitabine),proliferation (normalized cell index) [6],proliferation (normalized cell index) (BxPC3 cells [7]),clonogenic capacity / colony-forming ability (SK28 cells [8]),clonogenic capacity / colony-forming ability (SK28 cells [8]; listed as Juglone),killing effect in combination with BDM (BxPC3 cells [9]),cell viability (SK28 cells [10]),cell viability (SK28 cells [10]; listed as Juglone),killing in combination with bendamustine ([11]; juglone + bendamustine),killing in combination with gemcitabine ([11]; juglone + gemcitabine),killing effect in combination with BDM (MCF7 breast cancer cells; juglone + BDM),killing effect in combination with gemcitabine (MCF7 breast cancer cells; juglone + gemcitabine)
"Nc1ccn([C@@H]2O[C@H](CO)[C@@H](O)C2(F)F)c(=O)n1 [gemcitabine, 2′,2′-difluorodeoxycytidine]",responded the same as wild type MEFs,increased sensitivity,"further reduced, and this reduction was greater than pLKO-infected cells expressing TDG",52.3%,20.7%,,,,,,,,,,,,,
"O=C1C=CC(=O)c2c(O)cccc21 [juglone, 5-hydroxynaphthoquinone]",,,,,,more effectively killed,more effectively killed,A similar result was observed,suppressed proliferation more than juglone alone,reduction of SK28 cell viability (MTS assay) and colony-forming ability; also recorded: reduction of clonogenic capacity,reduce cell viability and clonogenic capacity,synergistic killing effect,reduction of SK28 cell viability,reduce cell viability,more effectively killed,more effectively killed,synergistic effect,synergistic killing
